According to PubChem BioAssay (NCI):
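Cultured in 96-well plates, cells were exposed to test compound for 48 hours across five concentrations. GI50: concentration for 50% inhibition of growth. At the TGI there is no net growth.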

Tests used:
Experiment in all cases: inhibition of tumour cell growth, NCI panel, 48 h
[1] = system: CAKI-1 renal
[2] = system: HCT-15 colon
[3] = system: MDA-MB-435
[4] = system: BT-549 breast
[5] = system: U251 CNS
[6] = system: HL-60(TB) leukemia
[7] = system: NCI-H226 lung
[8] = system: SK-OV-3 ovarian
[9] = system: A549 NSCLC
[10] = system: UO-31 renal
[11] = system: SNB-19 CNS
[12] = system: MOLT-4 leukemia
[13] = system: NCI-H522 lung
[14] = system: MDA-MB-468 breast
[15] = system: MDA-MB-231 breast
[16] = system: SK-MEL-28 melanoma
[17] = system: HS 578T breast
[18] = system: K-562 leukemia
[19] = system: SK-MEL-5 melanoma
[20] = system: 786-0 renal
[21] = system: OVCAR-5 ovarian
[22] = system: NCI-H460 lung
[23] = system: SF-295 CNS
[24] = system: ACHN renal
[25] = system: SF-539 CNS
[26] = system: NCI-H23 lung
[27] = system: CCRF-CEM leukemia
[28] = system: UACC-257 melanoma
[29] = system: MALME-3M melanoma
[30] = system: HOP-62 NSCLC

O=C(COc1ccc(NC(=O)Nc2ccc(Cl)c(Cl)c2)cc1)N=Nc1c(O)[nH]c2ccc(Cl)cc12
TGI [1]: 4.89 µM
GI50 [2]: 7.94 µM
TGI [2]: > 100 µM
GI50 [3]: 1.8 µM
TGI [3]: 3.68 µM
GI50 [4]: 1.62 µM
TGI [4]: 3.3 µM
GI50 [5]: 1.9 µM
TGI [5]: 3.79 µM
GI50 [6]: 2.05 µM
TGI [6]: 5.31 µM
GI50 [7]: 2.06 µM
TGI [7]: 4.59 µM
GI50 [8]: 2.19 µM
TGI [8]: 4.98 µM
GI50 [9]: 2.61 µM
TGI [9]: 7.01 µM
GI50 [10]: 22.5 µM
TGI [10]: > 100 µM
GI50 [11]: 2.66 µM
TGI [11]: 7.49 µM
GI50 [12]: 1.84 µM
TGI [12]: 4.5 µM
GI50 [13]: 1.74 µM
TGI [13]: 3.57 µM
GI50 [14]: 1.84 µM
TGI [14]: 3.54 µM
GI50 [15]: 1.93 µM
TGI [15]: 3.57 µM
GI50 [16]: 1.89 µM
TGI [16]: 3.86 µM
GI50 [17]: 2.33 µM
TGI [17]: 6.36 µM
GI50 [18]: 2.77 µM
TGI [18]: 7.1 µM
GI50 [19]: 1.72 µM
TGI [19]: 3.18 µM
GI50 [20]: 1.78 µM
TGI [20]: 3.8 µM
GI50 [21]: 2.11 µM
TGI [21]: 5.39 µM
GI50 [22]: 1.92 µM
TGI [22]: 4.07 µM
GI50 [23]: 1.81 µM
TGI [23]: 3.54 µM
GI50 [24]: 3.23 µM
TGI [24]: 11.4 µM
GI50 [25]: 1.78 µM
TGI [25]: 3.4 µM
GI50 [26]: 2.08 µM
TGI [26]: 4.4 µM
GI50 [27]: 2.27 µM
TGI [27]: 5.54 µM
GI50 [28]: 2 µM
TGI [28]: 4.15 µM
GI50 [29]: 1.68 µM
TGI [29]: 3.1 µM
GI50 [30]: 1.78 µM
TGI [30]: 3.65 µM
